Results reported in US5852015A, “Triazine containing anionic compounds useful as antiviral agents” (American Cyanamid Company, priority 1997, dated 1998).
Several values for one entry are separate records, joined by “and”; a condition that tells them apart may be missing. Identical values can stand only once. Counter-ions that a name gives are not always drawn. Like-named read-outs stand apart in the source and are kept apart here.

Columns and labels:
[1] = tested on: RSV (A2); experiment: viral yield reduction assay (growth inhibition), RSV; format: cell-based, human respiratory syncytial virus; conditions: 4 days; for IC50: human respiratory syncytial virus, 96 h
Experimental: (§1) The compounds were tested for biological activity using viral yield reduction assays. Host cells (indicated as HF for human foreskin fibroblasts and as vero, the commonly used African green monkey cell line, in Tables 1 and 1a) were plated at 4×10^4 cells/well in cell growth medium with 2% fetal bovine serum or 2% calf serum in 96-well plates (0.1 ml/well) and incubated overnight. The compounds were added to individual wells to give final concentrations ranging from 50 to 0.1 μg/ml in two-fold concentration steps. After 1 hour, virus was added, and the incubation was continued for 4 days with RSV or CMV and for 2 days with HSV. At the end of the experiment, the amount of virus growth was quantitated and the yield reduction at various concentrations of compound was calculated. This allows estimation of the concentration of compound giving 50% reduction in virus growth (IC50).
(§2) Table 1. Fifty percent inhibitory concentrations for growth inhibition
(§3) (yield reduction) and for plaque formation were determined as described i
(§4) the text. The virus strains used were RSV (A2), CMV (Ad169), HSV1
(§5) (Patton). The host cells used were human foreskin fibroblasts (HF) and […]

[2] = tested on: CMV (Ad169); experiment: viral plaque reduction assay, CMV Ad169; format: cell-based, human cytomegalovirus; conditions: Table 1; HF cells
[3] = tested on: RSV (A2); experiment: viral plaque reduction assay, RSV A2; format: cell-based, human respiratory syncytial virus; conditions: Table 1; vero cells
[4] = tested on: syncytium formation in cells previously infected with RSV; experiment: syncytium formation in RSV-infected vero cells; format: cell-based, African green monkey
Experimental: This was done by infecting vero cells at a multiplicity of infection of 3 for 1 hour, then replacing the original medium with fresh medium. After 6 hours incubation, compound was added. After 24 and 48 hours, the infected cells were examined under the microscope to determine the extent of syncytium formation. Differences in the extent of syncytium formation due to the presence of compound were easily recognized and the compounds were easily ranked in terms of potency in this assay. The actual IC50's as judged by this method are approximate. They were 0.3 and 0.05 μg/ml for compounds 16 and 17, respectively.

[5] = tested on: viral protein synthesis; experiment: viral protein synthesis in infected vero cells (mechanism of action); format: cell-based
Experimental: The time in the virus life-cycle when Example 1 exerts its effect was determined to increase understanding of the mechanism of action. This was accomplished by adding and removing the compound at various times relative to infection and assessing the effect on viral protein synthesis. Vero cells were infected on ice for 1 hour, unadsorbed virus was removed, and then the infected cells were incubated at 37° C. for 18 hours (virus adsorption will occur on ice, but fusion will not proceed until the temperature is raised to 18° C. or above). After the 18 hour incubation at 37° C. (when the bulk of ongoing protein synthesis was directed by viral RNAs), ^35 S-methionine was added for 2 hours, the cells were lysed, and the labeled proteins were analyzed on SDS-PAGE gels. The viral N, P, and M proteins were then evident. […] However, when the compound of Example 1 was added even after only 5 minutes incubation at 37° C., viral protein production was unimpeded. Therefore, the process inhibited was the fusion process or some closely succeeding step which is required for later viral gene expression.

[6] = tested on: RSV A2; format: in vivo, cotton rats; conditions: for inhibition of RSV in vivo (summary): cotton rats, all experiments of Table 3
[7] = tested on: RSV; format: in vivo, cotton rats; conditions: EXPT 3, Lavage/Plaque
[8] = tested on: RSV; format: in vivo, cotton rats; conditions: EXPT 3, Lung/Plaque
[9] = tested on: CMV (Ad169); experiment: viral yield reduction assay (growth inhibition), CMV; format: cell-based, human cytomegalovirus; conditions: Human betaherpesvirus 5, AD169, 96 h, HF cells, 4 days
Experimental: as §1, §2, §3, §4, §5

[10] = i.n. d 0 15 mg/k, d 1,2,3 30 mg/k
[11] = EXPT 3, i.n. 30 mg/k d 1,2,3, Lavage/CPE
[12] = EXPT 3, i.n. d 0 15 mg/k, d 1 30 mg/k, Lavage/CPE
[13] = EXPT 3, i.n. d 0 15 mg/k, d 1,2,3 30 mg/k, Lavage/CPE
[14] = EXPT 3, i.p. 30 mg/k d 1,2,3, Lavage/CPE

Which “IC50 in growth inhibition RSV/VERO” value ([1]; vero cells) does the source give for “4,4'-Bis[4,6-di[4-amino-N'-[3-aminophenyl-N,N-bis(2-hydroxyethyl)sulfonylimino]-benzensulfoamide]-1,3,5-triazin-2-ylamino]-stilbene-2,2'-disulfonic acid, disodium salt [Example 25]” here?
Its value is 30 µg/mL.

How did the “IC50 in growth inhibition RSV/VERO” value ([1]; vero cells) turn out when “4,4'-Bis[4-chloro-6-di[4-amino-N'-[3-aminophenyl-N,N-bis(2-carbamoylethyl)sulfonylimino]-benzamide]-1,3,5-triazin-2-ylamino]-stilbene-2,2'-disulfonic acid, disodium salt [Example 24]” was run?
The value was 50 µg/mL.

Which results are given for “4-[4.6-Di[3-aminophenyl-N,N-bis(2-carbamoylethyl)sulfonylimino]-1,3,5-triazin-2-ylamino]-4'-(4-[3-aminophenyl-N,N-bis(2-carbamoylethyl)sulfonylimino]- 6-[3-aminophenyl-N,N bis(3-propionic acid)-1,3,5-triazin-2-ylamino]-stilbene-2,2'-disulphonic acid, disodium salt [Example 10]”?
IC50 in growth inhibition RSV/HF ([1]; HF cells): < 3 µg/mL; IC50 in growth inhibition RSV/VERO ([1]; vero cells): 0.7 µg/mL

What does the source list for “9.9-Dioxo-2,7-Bis[4,6-di[3-aminophenyl-N,N-bis(2-carbamoylethyl)sulfonylimino]-1,3,5-triazin-2-ylamino]-dibenzothiophen-3.6-disulfonic acid, disodium salt [Example 23]”?
IC50 in plaque assay CMV/HF [2]: 20 µg/mL; IC50 in plaque assay RSV/VERO [3]: 8 µg/mL

How did the “inhibition of syncytium formation” value [4] turn out when `NC(=O)CCN(CCC(N)=O)S(=O)(=O)c1cccc(Nc2nc(Nc3cccc(S(=O)(=O)N(CCC(N)=O)CCC(N)=O)c3)nc(Nc3ccc(/C=C/c4ccc(Nc5nc(Nc6cccc(S(=O)(=O)N(CCC(N)=O)CCC(N)=O)c6)nc(Nc6cccc(S(=O)(=O)N(CCC(N)=O)CCC(N)=O)c6)n5)cc4S(=O)(=O)O)c(S(=O)(=O)O)c3)n2)c1` [Example 1, 4,4'-Bis[4.6-di[3-aminophenyl-N,N-bis(2-carbamoyl-ethyl)sulfonylimino]-1,3,5-triazin-2-ylamino]-stilbene-2,2'-disulfonic acid, disodium salt] was run?
Its value is “inhibit syncytium formation”.

And the viral protein synthesis ([5]; 10 μg/ml added immediately after virus adsorption and before raising temperature to 37° C.)?
Its viral protein synthesis is “fully prevented”.

And the viral protein production ([5]; added after only 5 minutes incubation at 37° C.)?
The viral protein production was “unimpeded”.

What about the “inhibition of RSV in vivo (summary)” value [6] of the same molecule?
Its value is “inhibit RSV in vivo”.

And the Mean titer ([6]; rat, in vivo, disodium salt)?
Its Mean titer is 2.8 log10/g lung and 1.73 log10/g lung and 3.43 log10/g lung.

How did the “inhibition of syncytium formation” value [4] turn out when `NC(=O)CCN(CCC(N)=O)S(=O)(=O)c1cccc(Nc2nc(Nc3cccc(S(=O)(=O)N(CCC(N)=O)CCC(N)=O)c3)nc(Nc3ccc(-c4ccc(Nc5nc(Nc6cccc(S(=O)(=O)N(CCC(N)=O)CCC(N)=O)c6)nc(Nc6cccc(S(=O)(=O)N(CCC(N)=O)CCC(N)=O)c6)n5)cc4S(=O)(=O)O)c(S(=O)(=O)O)c3)n2)c1` [Example 4, 4,4'-Bis[4,6-di[3-aminophenyl-N,N-bis(2-carbamoyl-ethyl)sulfonylimino]-1,3,5-triazin-2-ylamino]-biphenyl-2,2'-disulfonic acid, disodium salt] was run?
The value was “inhibit syncytium formation”.

And the Fold red. ([7]; i.n. 30 mg/k d 1,2,3)?
Its Fold red. is 1.2 log10.

And the Mean titer ([7]; i.n. 30 mg/k d 1,2,3)?
Its Mean titer is 3.09 log10/g lung.

What about the Fold red. ([7]; i.n. d 0 15 mg/k, d 1 30 mg/k) of the same molecule?
The Fold red. was 2.03 log10.

What about the Mean titer ([7]; i.n. d 0 15 mg/k, d 1 30 mg/k) of the same molecule?
The Mean titer was 2.26 log10/g lung.

What about the Fold red. [7, 10] of the same molecule?
The Fold red. was 2.04 log10.

What about the Mean titer [7, 10] of the same molecule?
The Mean titer was 2.25 log10/g lung.

What about the Fold red. ([7]; i.p. 30 mg/k d 1,2,3) of the same molecule?
The Fold red. was 0.09 log10.

What about the Mean titer ([7]; i.p. 30 mg/k d 1,2,3) of the same molecule?
Its Mean titer is 4.1 log10/g lung.

What about the Fold red. ([8]; i.n. 30 mg/k d 1,2,3) of the same molecule?
Its Fold red. is 1.18 log10.

And the Mean titer ([8]; i.n. 30 mg/k d 1,2,3)?
The Mean titer was 3.37 log10/g lung.

What about the Fold red. ([8]; i.n. d 0 15 mg/k, d 1 30 mg/k) of the same molecule?
Its Fold red. is 2.23 log10.

What about the Mean titer ([8]; i.n. d 0 15 mg/k, d 1 30 mg/k) of the same molecule?
The Mean titer was 2.32 log10/g lung.

And the Fold red. [8, 10]?
The Fold red. was 2.3 log10.

What about the Mean titer [8, 10] of the same molecule?
Its Mean titer is 2.25 log10/g lung.

What about the Fold red. ([8]; i.p. 30 mg/k d 1,2,3) of the same molecule?
Its Fold red. is 0.26 log10.

What about the Mean titer ([8]; i.p. 30 mg/k d 1,2,3) of the same molecule?
The Mean titer was 3.92 log10/g lung.

And the Fold red. [6, 11]?
The Fold red. was 2.51 log10.

What about the Mean titer [6, 11] of the same molecule?
The Mean titer was 1.67 log10/g lung.

What about the Fold red. [6, 12] of the same molecule?
Its Fold red. is 2.52 log10.

What about the Mean titer [6, 12] of the same molecule?
The Mean titer was 1.66 log10/g lung.

What about the Fold red. [6, 13] of the same molecule?
Its Fold red. is 2.13 log10.

And the Mean titer [6, 13]?
The Mean titer was 2.05 log10/g lung.

And the Fold red. [6, 14]?
The Fold red. was 0 log10.

And the Mean titer [6, 14]?
Its Mean titer is 4.18 log10/g lung.

And the “inhibition of RSV in vivo (summary)” value [6]?
The value was “inhibit RSV in vivo”.

What about the Fold red. ([6]; rat, in vivo) of the same molecule?
The Fold red. was 1.63 log10.

What about the Mean titer ([6]; rat, in vivo) of the same molecule?
Its Mean titer is 2.05 log10/g lung.

For `NC(=O)CCN(CCC(N)=O)S(=O)(=O)c1cccc(Nc2nc(Cl)nc(Nc3ccc(/C=C/c4ccc(Nc5nc(Cl)nc(Nc6cccc(S(=O)(=O)N(CCC(N)=O)CCC(N)=O)c6)n5)cc4S(=O)(=O)O)c(S(=O)(=O)O)c3)n2)c1` [Example 8, 4,4'-Bis[4-chloro-6-[3-aminophenyl-N,N-bis(2-carbamoylethyl)sulfonylimino]-1,3,5-triazin-2-ylamino]-stilbene-2,2'-disulphonic acid, disodium salt], which IC50 ([1]; HF cells, read-out: IC50 in growth inhibition RSV/HF) is on record?
The IC50 was > 50 µg/mL.

What about the IC50 ([1]; vero cells, read-out: IC50 in growth inhibition RSV/VERO) of the same molecule?
The IC50 was > 50 µg/mL.

And the IC50 [9]?
The IC50 was > 50 µg/mL.

What does the source list for `NC(=O)c1ncn([C@@H]2O[C@H](CO)[C@@H](O)[C@H]2O)n1` [Ribavirin, reference compound]?
Fold red. ([6]; rat, in vivo): 0.8 log10; Mean titer ([6]; rat, in vivo): 3.3 log10/g lung
